From ChEMBL document CHEMBL1122717, “Oxidation of sparteines by cytochrome P-450: evidence against the formation of N-oxides” (J Med Chem, 1984) come the findings set out here.

For this assay, the species on record is Rattus norvegicus. Briefly: Compound was evaluated for percent inhibition of antiarrhythmic activity catalyzed by cytochrome P-450 UT-H in liver microsomes of rats. The assay is classed as functional. The following applies: dose or concentration not given here.

A value given as a limit tells only on which side of the number the result lay.

Take `C1CCN2C[C@@H]3C[C@@H](CN4CCCC[C@@H]34)[C@H]2C1`: the inhibition is above 95%.
